Assays:
Human AML MV-4-11 cells = assay: Inhibition of cell proliferation in MV4-11 cells (CellTiter Aqueous One); format: cell-based; details: MV4-11, 72 h
Summary of the method: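 MV4-11 cells, 5×10^4 per well in IMDM with 10% FBS, were exposed to increasing compound concentrations or 0.1% DMSO for 72 h at 37 °C in triplicate. Viability was read by MTS (CellTiter Aqueous One) absorbance at 490 nm after 3-4 h. IC50 was derived from background-corrected signal relative to DMSO.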

[1] = system: c-myc in Human AML MV4-11 cells; assay: Inhibition of cMYC expression (mRNA, real-time PCR) in MV4-11 cells; format: cell-based; details: 3 h treatment, cMYC mRNA by real-time PCR
Summary of the method: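 MV4-11 cells in IMDM with 10% FBS were treated with increasing compound concentrations (DMSO 0.1%) for 3 h at 37 °C, in triplicate. Isolated mRNA was quantified by one-step TaqMan RT-qPCR, cMYC Ct normalized to cyclophilin, and fold expression given relative to DMSO control.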

[2] = target: Brd4 bromodomain 1 (BRD4(1)) (Homo sapiens, UniProt O60885); assay: Inhibition of tetra-acetylated histone H4 binding to Brd4 bromodomain 1, measured by FRET (HTRF); design: made in house; host or cells: E. coli BL21(DE3); details: 2 h at room temperature
Summary of the method: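 N-terminally His-tagged bromodomain (200 nM), expressed in E. coli and purified by Ni affinity and size exclusion, was incubated with biotinylated tetra-acetylated H4 peptide (25-50 nM), Eu-cryptate streptavidin and XL665 anti-His in HEPES pH 7.4 buffer with 0.2% DMSO. Reactions ran 2 h at room temperature. IC50 came from the 665/620 nm fluorescence decrease.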

hIL-6 mRNA = assay: Inhibition of hIL-6 mRNA transcription in LPS-stimulated U937 macrophages; format: cell-based, Human; details: Homo sapiens, U-937, PMA-differentiated U937 cells, 1 h pretreatment, LPS 3 h, read-out: IL-6 activity
Summary of the method: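 PMA-differentiated U937 macrophages (60 ng/mL PMA, 3 days) pretreated 1 h with compound in 0.1% DMSO, then stimulated with 1 ug/mL E. coli LPS for 3 h at 37° C. IL-6 mRNA quantified by one-step TaqMan qRT-PCR, normalized to cyclophilin; fold expression relative to control, triplicate wells.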

hIL-17 mRNA = assay: Inhibition of hIL-17 mRNA transcription in OKT3-stimulated peripheral blood mononuclear cells; format: cell-based; details: human PBMC, OKT3 stimulation 6 h, read-out: IL-17 Activity
Description: Human peripheral blood mononuclear cells were plated (2.0×10^5 cells per well) in a 96-well plate in 45 μL OpTimizer T Cell expansion media (Life Technologies) containing 20 ng/ml IL-2 and penicillin/streptomycin. The cells were treated with increasing concentrations of the test compound or DMSO (0.1%), and incubated at 37° C., 5% CO2 for 1 h before addition of 10× stock OKT3 antibody at 10 ug/ml in media. Triplicate wells were used for each concentration. Cells were incubated at 37° C., 5% CO2 for 6 h before the cells were harvested. At time of harvest, cells were pelleted by centrifugation at 800 rpm for 5 min. Cells were harvested using the mRNA Catcher PLUS kit according to manufacturer's instructions. The eluted mRNA was then used in a one-step quantitative real-time PCR reaction, using components of the RNA UltraSense™ One-Step Kit (Life Technologies) together with Applied Biosystems TaqMan® primer-probes for hIL-17 and Cyclophilin. Real-time PCR plates were run on a ViiA™7 real time PCR machine (Applied Biosystems), data was analyzed, normalizing the Ct values for hIL-17 to an internal control, prior to determining the fold induction of each unknown sample, relative to the control.

SMILES	IC50 (Human AML MV-4-11 cells)	IC50 [1]	IC50 [2]	IC50 (hIL-6 mRNA)	IC50 (hIL-17 mRNA)	melting point
Cc1ccncc1-c1cc(-c2c(C)noc2C)cc2[nH]cnc12 [Example Compound 20, 3,5-dimethyl-4-(4-(4-methylpyridin-3-yl)-1H-benzo[d]imidazol-6-yl)isoxazole]	300 to 3000 nM	300 to 3000 nM	≤ 300 nM	≤ 300 nM	300 to 3000 nM	–
Cc1noc(C)c1-c1cc(-c2c(C)noc2C)c2[nH]ncc2c1 [Example Compound 21, 4,4′-(1H-indazole-5,7-diyl)bis(3,5-dimethylisoxazole)]	300 to 3000 nM	300 to 3000 nM	≤ 300 nM	300 to 3000 nM	300 to 3000 nM	–
Cc1nc2c(-c3cc(F)ccc3C)cc(-c3c(C)noc3C)cc2[nH]1 [Example Compound 92, 4-(4-(5-fluoro-2-methyl-phenyl)-2-methyl-1H-benzo[d]imidazol-6-yl)-3,5-dimethyl isoxazole]	300 to 3000 nM	300 to 3000 nM	≤ 300 nM	≤ 300 nM	300 to 3000 nM	–
Cc1nc2c(-c3ccc4sncc4c3)cc(-c3c(C)noc3C)cc2[nH]1 [Example Compound 137, 4-(4-(benzo[d]isothiazol-5-yl)-2-methyl-1H-benzo[d]imidazol-6-yl)-3,5-dimethyl isoxazole]	300 to 3000 nM	300 to 3000 nM	≤ 300 nM	300 to 3000 nM	300 to 3000 nM	–
Cc1nc2c(-c3c(C)noc3C)cc(-c3c(C)cnn3C)cc2[nH]1 [Example Compound 178, 4-(6-(1,4-dimethyl-1H-pyrazol-5-yl)-2-methyl-1H-benzo[d]imidazol-4-yl)-3,5-dimethylisoxazole]	3000 to 30000 nM	300 to 3000 nM	300 to 3000 nM	300 to 3000 nM	≤ 300 nM	–
Cc1noc(C)c1-c1cc(-c2c(C)noc2C)c2c(C)n[nH]c2c1 [Example Compound 179, 4,4′-(3-methyl-1H-indazole-4,6-diyl)bis(3,5-dimethylisoxazole)]	300 to 3000 nM	300 to 3000 nM	≤ 300 nM	–	–	228 to 230 °C
Cc1ncccc1-c1cc(-c2c(C)noc2C)cc2[nH]c(N3CCN(C)CC3)nc12 [Example Compound 183, 3,5-dimethyl-4-(2-(4-methylpiperazin-1-yl)-4-(2-methylpyridin-3-yl)-1H-benzo[d]imidazol-6-yl)isoxazole]	≤ 300 nM	≤ 300 nM	≤ 300 nM	–	–	238 to 240 °C
Cc1ccc(C#N)cc1-c1cc(-c2c(C)noc2C)cc2[nH]c(N3CCN(C)CC3)nc12 [Example Compound 186, 3-(6-(3,5-dimethylisoxazol-4-yl)-2-(4-methylpiperazin-1-yl)-1H-benzo[d]imidazol-4-yl)-4-methylbenzonitrile]	≤ 300 nM	≤ 300 nM	≤ 300 nM	–	–	133 to 135 °C
Cc1ccc(C(N)=O)cc1-c1cc(-c2c(C)noc2C)cc2[nH]c(N3CCN(C)CC3)nc12 [Example Compound 189, 3-(6-(3,5-dimethylisoxazol-4-yl)-2-(4-methylpiperazin-1-yl)-1H-benzo[d]imidazol-4-yl)-4-methylbenzamide]	300 to 3000 nM	300 to 3000 nM	≤ 300 nM	–	–	133 to 135 °C
Cc1noc(C)c1-c1cc(-c2c(C)noc2C)c2nc[nH]c2c1Br [Example Compound 192, 4,4′-(7-bromo-1H-benzo[d]imidazole-4,6-diyl)bis(3,5-dimethylisoxazole)]	3000 to 30000 nM	300 to 3000 nM	≤ 300 nM	–	–	133 to 135 °C
Cc1noc(C)c1-c1cc(-c2c(C)nn(C)c2C)c2[nH]c([S+](C)[O-])nc2c1 (stereo not drawn) [Example Compound 194, 3,5-dimethyl-4-(2-(methylsulfinyl)-4-(1,3,5-trimethyl-1H-pyrazol-4-yl)-1H-benzo[d]imidazol-6-yl)isoxazole]	300 to 3000 nM	–	≤ 300 nM	–	–	242 to 244 °C
Cc1noc(C)c1-c1cc(-c2c(C)nn(C)c2C)c2[nH]c(S(C)(=O)=O)nc2c1 [Example Compound 195, 3,5-dimethyl-4-(2-(methylsulfonyl)-4-(1,3,5-trimethyl-1H-pyrazol-4-yl)-1H-benzo[d]imidazol-6-yl)isoxazole]	300 to 3000 nM	300 to 3000 nM	≤ 300 nM	–	–	254 to 256 °C
Cc1ccncc1-c1cc(-c2c(C)noc2C)cc2[nH]c(N3CCOCC3)nc12 [Example Compound 196, 4-(6-(3,5-dimethylisoxazol-4-yl)-4-(4-methylpyridin-3-yl)-1H-benzo[d]imidazol-2-yl)morpholine]	300 to 3000 nM	300 to 3000 nM	300 to 3000 nM	–	–	137 to 141 °C

Next, values leading:

IC50 (Human AML MV-4-11 cells)	IC50 [1]	IC50 [2]	IC50 (hIL-6 mRNA)	IC50 (hIL-17 mRNA)	melting point	SMILES
≤ 300 nM	≤ 300 nM	≤ 300 nM	≤ 300 nM	300 to 3000 nM	–	Cc1noc(C)c1Nc1cc(-c2c(C)noc2C)cc2[nH]cnc12 [Example Compound 42, N-(6-(3,5-dimethyl-isoxazol-4-yl)-1H-benzo[d]imidazol-4-yl)-3,5-dimethyl-isoxazol-4-amine]
≤ 300 nM	300 to 3000 nM	≤ 300 nM	≤ 300 nM	300 to 3000 nM	–	Cc1nc2c(-c3cnccc3C(F)(F)F)cc(-c3c(C)noc3C)cc2[nH]1 [Example Compound 50, 3,5-dimethyl-4-(2-methyl-4-(4-(trifluoro-methyl)pyridin-3-yl)-1H-benzo[d]imidazol-6-yl)isoxazole]
≤ 300 nM	300 to 3000 nM	≤ 300 nM	≤ 300 nM	≤ 300 nM	–	Cc1nc2c(-c3c(C(F)(F)F)nn(C)c3C)cc(-c3c(C)noc3C)cc2[nH]1 [Example Compound 66, 4-(4-(1,5-dimethyl-3-(trifluoro-methyl)-1H-pyrazol-4-yl)-2-methyl-1H-benzo[d]imidazol-6-yl)-3,5-dimethyl-isoxazole]
≤ 300 nM	≤ 300 nM	≤ 300 nM	≤ 300 nM	≤ 300 nM	–	Cc1nc2c(-c3ccc(N)nc3C)cc(-c3c(C)noc3C)cc2[nH]1 [Example Compound 68, 5-(6-(3,5-dimethyl-isoxazol-4-yl)-2-methyl-1H-benzo[d]imidazol-4-yl)-6-methyl-pyridin-2-amine]
≤ 300 nM	≤ 300 nM	≤ 300 nM	≤ 300 nM	300 to 3000 nM	–	Cc1noc(C)c1-c1cc(-c2cccc(C(N)=O)c2C)c2nc[nH]c2c1 [Example Compound 73, 3-(6-(3,5 dimethyl-isoxazol-4-yl)-1H-benzo[d]imidazol-4-yl)-2-methyl-benzamide]
≤ 300 nM	≤ 300 nM	≤ 300 nM	300 to 3000 nM	≤ 300 nM	–	CCOc1nc2c(-c3cccnc3C)cc(-c3c(C)noc3C)cc2[nH]1 [Example Compound 81, 4-(2-ethoxy-4-(2-methylpyridin-3-yl)-1H-benzo[d]imidazol-6-yl)-3,5-dimethyl isoxazole]
≤ 300 nM	≤ 300 nM	≤ 300 nM	≤ 300 nM	300 to 3000 nM	–	Cc1noc(C)c1-c1cc(-c2c(C)noc2C)c2c(C)c[nH]c2c1 [Example Compound 140, 4,4′-(3-methyl-1H-indole-4,6-diyl)bis(3,5-dimethylisoxazole)]
≤ 300 nM	≤ 300 nM	≤ 300 nM	≤ 300 nM	≤ 300 nM	–	Cc1nc2c(Nc3c(C)nn(C)c3C)cc(-c3c(C)noc3C)cc2[nH]1 [Example Compound 146, 6-(3,5-dimethyl-isoxazol-4-yl)-2-methyl-N-(1,3,5-trimethyl-1H-pyrazol-4-yl)-1H-benzo[d] imidazol-4-amine]
